Data: patent publication US20120220562A1, “Anti-Viral Compounds” (ABBOTT LABAORATORIES, priority 2011, published 2012)

Each compound was assayed on HCV 1b-Con1 replicon (assay: HCV 1b-Con1 replicon assay in the presence of 5% FBS). Conditions: Hepatitis C virus.
Format: cell-based
In the case of `COC(=O)N[C@H](C(=O)N1CCC[C@H]1c1nc2cc([C@H]3CC[C@H](c4ccc5nc([C@@H]6CCCN6C(=O)[C@@H](NC(=O)OC)C(C)C)[nH]c5c4)N3c3cc(F)c(N4CCC(c5ccccc5)C4)c(F)c3)ccc2[nH]1)C(C)C` (stereo partly drawn) [Example 4.33, methyl {(2S)-1-[(2S)-2-{5-[(2R,5R)-1-[3,5-difluoro-4-(3-phenylpyrrolidin-1-yl)phenyl]-5-{2-[(2S)-1-{(2S)-2-[(methoxycarbonyl)amino]-3-methylbutanoyl}pyrrolidin-2-yl]-1H-benzimidazol-6-yl}pyrrolidin-2-yl]-1H-benzimidazol-2-yl}pyrrolidin-1-yl]-3-methyl-1-oxobutan-2-yl}carbamate], the EC50 is reported as under 0.1 nM.
In the case of `COC(=O)N[C@H](C(=O)N1[C@H](c2nc3cc([C@H]4CC[C@H](c5cc6nc([C@@H]7C[C@@H]8CCC[C@@H]8N7C(=O)[C@@H](NC(=O)OC)C(C)C)[nH]c6cc5F)N4c4cc(F)c(N5CCCCC5)c(F)c4)c(F)cc3[nH]2)C[C@@H]2CCC[C@@H]21)C(C)C` [Example 3.37, methyl {(2S)-1-[(2S,3aS,6aS)-2-{5-[(2R,5R)-1-[3,5-difluoro-4-(piperidin-1-yl)phenyl]-5-{6-fluoro-2-[(2S,3aS,6aS)-1-{(2S)-2-[(methoxycarbonyl)amino]-3-methylbutanoyl}octahydrocyclopenta[b]pyrrol-2-yl]-1H-benzimidazol-5-yl}pyrrolidin-2-yl]-6-fluoro-1H-benzimidazol-2-yl}hexahydrocyclopenta[b]pyrrol-1(2H)-yl]-3-methyl-1-oxobutan-2-yl}carbamate], the EC50 is reported as under 0.1 nM.
`COC(=O)N[C@H](C(=O)N1CCC[C@H]1c1nc2cc([C@H]3CC[C@H](c4cc5nc([C@@H]6CCCN6C(=O)[C@@H](NC(=O)OC)C6CCCC6)[nH]c5cc4F)N3c3cc(F)c(N4CCC(C(C)(C)C)CC4)c(F)c3)c(F)cc2[nH]1)C1CCCC1` [Example 4.28, dimethyl ({(2R,5R)-1-[4-(4-tert-butylpiperidin-1-yl)-3,5-difluorophenyl]pyrrolidine-2,5-diyl}bis{(6-fluoro-1H-benzimidazole-5,2-diyl)(2S)pyrrolidine-2,1-diyl[(1S)-1-cyclopentyl-2-oxoethane-2,1-diyl]})biscarbamate] showed an EC50 of under 0.1 nM.
For `COC(=O)N[C@H](C(=O)N1CCC[C@H]1c1nc2cc([C@H]3CC[C@H](c4cc5nc([C@@H]6CCCN6C(=O)[C@@H](NC(=O)OC)C6CCCC6)[nH]c5cc4F)N3c3cc(F)c(N4CCC(c5ccccc5)CC4)c(F)c3)c(F)cc2[nH]1)C1CCCC1` [Example 4.40, dimethyl ({(2R,5R)-1-[3,5-difluoro-4-(4-phenylpiperidin-1-yl)phenyl]pyrrolidine-2,5-diyl}bis{(6-fluoro-1H-benzimidazole-5,2-diyl)(2S)pyrrolidine-2,1-diyl[(1S)-1-cyclopentyl-2-oxoethane-2,1-diyl]})biscarbamate], the EC50 was under 0.1 nM.
Work on `COC(=O)N[C@H](C(=O)N1CCC[C@H]1c1nc2cc([C@H]3CC[C@H](c4ccc5[nH]c([C@@H]6CCCN6C(=O)[C@@H](NC(=O)OC)C(C)C)nc5c4)N3c3cc(F)c(N4Cc5ccccc5C4)c(F)c3)ccc2[nH]1)C(C)C` [Example 5.13, methyl {(2S)-1-[(2S)-2-{5-[(2R,5R)-1-[4-(1,3-dihydro-2H-isoindol-2-yl)-3,5-difluorophenyl]-5-{2-[(2S)-1-{(2S)-2-[(methoxycarbonyl)amino]-3-methylbutanoyl}pyrrolidin-2-yl]-1H-benzimidazol-5-yl}pyrrolidin-2-yl]-1H-benzimidazol-2-yl}pyrrolidin-1-yl]-3-methyl-1-oxobutan-2-yl}carbamate] yielded an EC50 of under 0.1 nM.
`COC(=O)N[C@H](C(=O)N1C[C@@H](F)C[C@H]1c1nc2cc([C@H]3CC[C@H](c4ccc5[nH]c([C@@H]6C[C@H](F)CN6C(=O)[C@@H](NC(=O)OC)C(C)C)nc5c4)N3c3ccc(F)cc3)ccc2[nH]1)C(C)C` [Example 3.9, methyl {(2S)-1-[(2S,4S)-4-fluoro-2-{5-[(2R,5R)-5-{2-[(2S,4S)-4-fluoro-1-{(2S)-2-[(methoxycarbonyl)amino]-3-methylbutanoyl}pyrrolidin-2-yl]-1H-benzimidazol-5-yl}-1-(4-fluorophenyl)pyrrolidin-2-yl]-1H-benzimidazol-2-yl}pyrrolidin-1-yl]-3-methyl-1-oxobutan-2-yl}carbamate] was tested, and the EC50 was 0.1 to 1 nM.
`COC(=O)N[C@H](C(=O)N1[C@H](c2nc3cc([C@H]4CC[C@H](c5ccc6[nH]c([C@@H]7C[C@@H]8CCC[C@@H]8N7C(=O)[C@@H](NC(=O)OC)C7CCOCC7)nc6c5)N4c4cc(F)c(N5CCCCC5)c(F)c4)ccc3[nH]2)C[C@@H]2CCC[C@@H]21)C(C)C` [Example 10.1, methyl [(1S)-2-[(2S,3aS,6aS)-2-{5-[(2R,5R)-1-[3,5-difluoro-4-(piperidin-1-yl)phenyl]-5-{2[(2S,3aS,6aS)-1-{(2S)-2-[(methoxycarbonyl)amino]-3-methylbutanoyl}octahydrocyclopenta[b]pyrrol-2-yl]-1H-benzimidazol-5-yl}pyrrolidin-2-yl]-1H-benzimidazol-2-yl}hexahydrocyclopenta[b]pyrrol-1(2H)-yl]-2-oxo-1-(tetrahydro-2H-pyran-4-yl)ethyl]carbamate] showed an EC50 of under 0.1 nM.
Compound `COC(=O)N[C@H](C(=O)N1CCC[C@H]1c1nc2c(F)c([C@H]3CC[C@@H](c4ccc5nc([C@@H]6CCCN6C(=O)[C@@H](NC(=O)OC)C(C)C)[nH]c5c4F)N3c3ccc(C(C)(C)C)cc3)ccc2[nH]1)C(C)C` [Example 6.4, methyl {(2S)-1-[(2S)-2-{5-[(2R,5S)-1-(4-tert-butylphenyl)-5-{7-fluoro-2-[(2S)-1-{(2S)-2-[(methoxycarbonyl)amino]-3-methylbutanoyl}pyrrolidin-2-yl]-1H-benzimidazol-6-yl}pyrrolidin-2-yl]-4-fluoro-1H-benzimidazol-2-yl}pyrrolidin-1-yl]-3-methyl-1-oxobutan-2-yl}carbamate] has an EC50 of under 0.1 nM.
In the case of `COC(=O)N[C@H](C(=O)N1CCC[C@H]1c1nc2cc([C@H]3CC[C@H](c4cc5nc([C@@H]6CCCN6C(=O)[C@@H](NC(=O)OC)[C@@H](C)OC)[nH]c5cc4F)N3c3cc(F)c(N4CCCCC4)c(F)c3)c(F)cc2[nH]1)[C@@H](C)OC` [Example 3.36, methyl {(2S,3R)-1-[(2S)-2-{5-[(2R,5R)-1-[3,5-difluoro-4-(piperidin-1-yl)phenyl]-5-(6-fluoro-2-{(2S)-1-[N-(methoxycarbonyl)-O-methyl-L-threonyl]pyrrolidin-2-yl}-1H-benzimidazol-5-yl)pyrrolidin-2-yl]-6-fluoro-1H-benzimidazol-2-yl}pyrrolidin-1-yl]-3-methoxy-1-oxobutan-2-yl}carbamate], the EC50 is reported as under 0.1 nM.
With `COC(=O)N[C@H](C(=O)N1CCC[C@H]1c1nc2cc([C@H]3CC[C@H](c4ccc5[nH]c([C@@H]6CCCN6C(=O)[C@@H](NC(=O)OC)C(C)C)nc5c4)N3c3cc(F)c(N4CCCCC4c4ccccc4)c(F)c3)ccc2[nH]1)C(C)C` (stereo partly drawn) [Example 4.50, methyl {(2S)-1-[(2S)-2-{5-[(2R,5R)-1-[3,5-difluoro-4-(2-phenylpiperidin-1-yl)phenyl]-5-{2-[(2S)-1-{(2S)-2-[(methoxycarbonyl)amino]-3-methylbutanoyl}pyrrolidin-2-yl]-1H-benzimidazol-5-yl}pyrrolidin-2-yl]-1H-benzimidazol-2-yl}pyrrolidin-1-yl]-3-methyl-1-oxobutan-2-yl}carbamate] the EC50 was under 0.1 nM.
Work on `COC(=O)N[C@H](C(=O)N1CCC[C@H]1c1nc2cc([C@H]3CC[C@H](c4ccc5[nH]c([C@@H]6CCCN6C(=O)[C@@H](NC(=O)OC)C(C)C)nc5c4)N3c3ccc(OC(F)(F)F)c(Cl)c3)ccc2[nH]1)C(C)C` [Example 3.2, methyl {(2S)-1-[(2S)-2-{5-[(2R,5R)-1-[3-chloro-4-(trifluoromethoxy)phenyl]-5-{2-[(2S)-1-{(2S)-2-[(methoxycarbonyl)amino]-3-methylbutanoyl}pyrrolidin-2-yl]-1H-benzimidazol-5-yl}pyrrolidin-2-yl]-1H-benzimidazol-2-yl}pyrrolidin-1-yl]-3-methyl-1-oxobutan-2-yl}carbamate] yielded an EC50 of under 0.1 nM.
`COC(=O)N[C@H](C(=O)N1C[C@@H](F)C[C@H]1c1nc2cc([C@H]3CC[C@H](c4ccc5[nH]c([C@@H]6C[C@H](F)CN6C(=O)[C@@H](NC(=O)OC)C(C)C)nc5c4)N3c3ccc(C(C)(C)C)cc3)ccc2[nH]1)C(C)C` [Example 3.12, methyl {(2S)-1-[(2S,4S)-2-{5-[(2R,5R)-1-(4-tert-butylphenyl)-5-{2-[(2S,45)-4-fluoro-1-{(2S)-2-[(methoxycarbonyl)amino]-3-methylbutanoyl}pyrrolidin-2-yl]-1H-benzimidazol-5-yl}pyrrolidin-2-yl]-1H-benzimidazol-2-yl}-4-fluoropyrrolidin-1-yl]-3-methyl-1-oxobutan-2-yl}carbamate] showed an EC50 of under 0.1 nM.
With `COC(=O)N[C@H](C(=O)N1CCC[C@H]1c1nc2cc([C@H]3CC[C@H](c4ccc5[nH]c([C@@H]6CCCN6C(=O)[C@@H](NC(=O)OC)C(C)(C)C)nc5c4)N3c3cc(F)c(N4CCC(c5ccccc5)CC4)c(F)c3)ccc2[nH]1)C(C)(C)C` [Example 5.4, methyl {(2S)-1-[(2S)-2-{5-[(2R,5R)-1-[3,5-difluoro-4-(4-phenylpiperidin-1-yl)phenyl]-5-{2-[(2S)-1-{(2S)-2-[(methoxycarbonyl)amino]-3,3-dimethylbutanoyl}pyrrolidin-2-yl]-1H-benzimidazol-5-yl}pyrrolidin-2-yl]-1H-benzimidazol-2-yl}pyrrolidin-1-yl]-3,3-dimethyl-1-oxobutan-2-yl}carbamate] the EC50 was under 0.1 nM.
`COC(=O)N[C@H](C(=O)N1CCC[C@H]1c1nc2cc([C@H]3CC[C@H](c4ccc5[nH]c([C@@H]6CCCN6C(=O)[C@@H](NC(=O)OC)C(C)C)nc5c4)N3c3cc(F)c(N4C[C@H]5CCCC[C@H]5C4)c(F)c3)ccc2[nH]1)C(C)C` [Example 4.3, methyl {(2S)-1-[(2S)-2-{5-[(2R,5R)-1-{3,5-difluoro-4-[(3aR,7aS)-octahydro-2H-isoindol-2-yl]phenyl}-5-{2-[(2S)-1-{(2S)-2-[(methoxycarbonyl)amino]-3-methylbutanoyl}pyrrolidin-2-yl]-1H-benzimidazol-5-yl}pyrrolidin-2-yl]-1H-benzimidazol-2-yl}pyrrolidin-1-yl]-3-methyl-1-oxobutan-2-yl}carbamate] showed an EC50 of under 0.1 nM.
